This note sets out measurements from ChEMBL document CHEMBL3124877, “Structure-activity-relationship studies around the 2-amino group and pyridine core of antimalarial 3,5-diarylaminopyridines lead to a novel series of pyrazine analogues with oral in vivo activity” (J Med Chem, 2013).

One data set concerns Plasma. In words: Apparent plasma concentration in mouse infected with Plasmodium berghei ANKA at 3 mg/kg, po measured after 24 hrs. Type of data set: ADME, organism-based. As to conditions: in vivo. On the set-up: dose 3 mg/kg, route oral.
Data set [1] in a line: Apparent Cmax in mouse infected with Plasmodium berghei ANKA at 3 mg/kg, po measured after 24 hrs. It is filed as ADME, organism-based. On the set-up: dose 3 mg/kg, route oral. As to conditions: in vivo.
A short description of data set [2]: Apparent AUC in mouse infected with Plasmodium berghei ANKA at 3 mg/kg, po measured after 24 hrs. It is filed as ADME, organism-based. On the set-up: time < 24 hr, dose 3 mg/kg, route oral. The note with it: in vivo.
The nature of data set [3]: (§1) Half life in human liver microsomes by LC-MS/MS analysis. It is filed as ADME. As to conditions: liver microsomes. (In general: Microsomes from liver hold many membrane-bound enzymes, among them those of drug oxidation.)
Another data set in a line: in vitro. As to conditions: human, liver microsomes.
The nature of a further data set: physchem. As to conditions: octanol/water, pH 7.4.
In data set [4] the test system is Liver microsome. In words: Metabolic stability in rat liver microsomes. Type of data set: ADME.
Data set [5] deals with Liver microsome. The description is as §1. The note with it: microsomes. Type of data set: ADME.
Data set [6] relates to Liver microsome. The note with it: human, microsomes.

For the molecule `CS(=O)(=O)c1ccc(-c2cnc(N)c(-c3ccc(C(F)(F)F)cc3)n2)cc1`, in the data set with Plasma, the Cave stood at 300 nM. The Cmax (commonly the peak of the concentration-time curve) in [1] came to 500 nM. Moreover, the exposure (AUC) – broadly, the area under the concentration-time curve, a measure of exposure – at 24 h in [2] was determined as 6.4 µM·h. In data set [3], the half-life (as a rule, the time needed for the level to fall by half in the phase considered) was determined as 2.58 h. In “in vitro”, the microsomal CLint – broadly, the capacity of the preparation to metabolise the compound, expressed as a volume cleared per time – came out at 11 µL/min/mg. Moreover, the logD (usually the decadic logarithm of the distribution of all forms, ionised or not, between an organic phase and buffer at a given pH) in the data set “physchem” is 2.8.
For the molecule `COc1ccc(-c2cc(-c3ccc(S(C)(=O)=O)cc3)cnc2I)cn1`, the half-life in data set [3] worked out at 3.97 h. This molecule had a microsomal CLint in the data set “in vitro” of 7.3 µL/min/mg. In addition, the pH-dependent lipophilicity (logD) in the data set “physchem” was found to be 3.3.
Take `CCS(=O)(=O)c1ccc(-c2cnc(N)c(-c3ccc(C(F)(F)F)nc3)n2)cc1`: in the data set with Plasma, the Cave amounted to 10 nM. Moreover, in data set [1], the Cmax stood at 1100 nM. For the same molecule, in [2], the exposure (AUC) at 24 h was 0.01 µM·h. The molecule further registered a half-life in data set [3] of 3.62 h. Moreover, the microsomal CLint in “in vitro” amounted to 8 µL/min/mg. In “physchem”, this molecule yielded a log distribution coefficient (logD) of 3.1.
Molecule `COc1ccc(-c2cc(-c3ccc(S(C)(=O)=O)cc3)cnc2O)cn1` gave a logD in “physchem” of 1.7.
The molecule `Nc1ncc(-c2ccc(C(=O)N3CCOCC3)cc2)nc1-c1ccc(C(F)(F)F)nc1` had a half-life in data set [3] of more than 4.17 h. The same molecule displayed a microsomal CLint in the data set “in vitro” of less than 7 µL/min/mg.
`COc1ccc(-c2csc3c(-c4ccc(S(C)(=O)=O)cc4)cnc(N)c23)cn1`: in [3], the half-life was more than 4.17 h. Also, the microsomal CLint in “in vitro” was less than 7 µL/min/mg. For the same molecule, the log distribution coefficient (logD) in “physchem” stood at 2.9.
With `COc1ccc(-c2nc(-c3ccc(S(C)(=O)=O)cc3)ccc2N)cn1`, the pH-dependent lipophilicity (logD) in “physchem” came out at 2.3.
On to `CS(=O)(=O)c1ccc(-c2cnc(N)c(-c3ccc(C(F)(F)F)nc3)n2)cc1`, for which the Cave in the data set with Plasma stood at 1000 nM. For the same molecule, the Cmax in data set [1] is 1500 nM. The AUC at 24 h in data set [2] was found to be 24.3 µM·h. Moreover, the Stability result in the data set with Liver microsome [4] is listed as “Stable”. Further, the half-life in [3] is more than 4.17 h. The intrinsic clearance (microsomal CLint) in “in vitro” was less than 7 µL/min/mg. The same molecule yielded a log distribution coefficient (logD) in “physchem” of 2.8.
`CNS(=O)(=O)c1ccc(-c2cnc(N)c(-c3ccc(C(F)(F)F)nc3)n2)cc1`: the Cave in the data set with Plasma worked out at 10 nM. The highest concentration (Cmax) in data set [1] was found to be 2000 nM. The area under the curve (AUC) at 24 h in data set [2] turned out to be 0.01 µM·h. The same molecule had a half-life in [3] of 1.85 h. The molecule further displayed an intrinsic clearance (microsomal CLint) in “in vitro” of 12 µL/min/mg. In the data set “physchem”, this molecule gave a logD of 2.8.
For the molecule `CNc1ncc(-c2ccc(S(C)(=O)=O)cc2)cc1-c1ccc(OC)nc1`, the pH-dependent lipophilicity (logD) in “physchem” was 2.6.
As for `COc1ccc(-c2cc(-c3ccc(S(C)(=O)=O)cc3)ccc2N)cn1`, in data set [3], the half-life is more than 4.17 h. In the data set “in vitro”, this molecule showed an intrinsic metabolic clearance (microsomal CLint) of less than 7 µL/min/mg. The logD in the data set “physchem” came out at 2.8.
`CCOc1ncc(-c2ccc(S(C)(=O)=O)cc2)cc1-c1ccc(OC)nc1` came in with a half-life in [3] of 2.03 h. In “in vitro”, this molecule registered a microsomal CLint of 14.2 µL/min/mg. This molecule gave a logD in the data set “physchem” of 3.7.
The like results for `COc1ccc(-c2nc(-c3ccc(S(C)(=O)=O)cc3)cnc2N)cn1` were, in that order, 2.57 h, 11 µL/min/mg and 2.3.
On to `Nc1ncc(-c2ccc(C(=O)N3CCOCC3)cc2)nc1-c1ccc(C(F)(F)F)cc1`, for which the Cave with Plasma came out at 10 nM. In addition, in data set [1], the peak concentration (Cmax) was found to be 1100 nM. Also, the AUC at 24 h in [2] is 0.01 µM·h. The molecule further displayed a half-life in data set [3] of more than 4.17 h. The same molecule returned an intrinsic clearance (microsomal CLint) in “in vitro” of less than 7 µL/min/mg. Besides, the logD in “physchem” worked out at 3.2.
`COc1ccc(-c2cc(-c3ccc(S(C)(=O)=O)cc3)cnc2NCCCCN)cn1` displayed a half-life in data set [3] of more than 4.17 h. In the data set “in vitro”, this molecule registered an intrinsic clearance (microsomal CLint) of less than 7 µL/min/mg. For the same molecule, in the data set “physchem”, the log distribution coefficient (logD) is 1.8.
Consider `COc1ccc(-c2cncc(-c3ccc(S(C)(=O)=O)cc3)c2)cn1`, for which, in the data set on Liver microsome [5], the t1/2 is 0.683 h. Further, the CLH in the data set on Liver microsome [6] came to 11.3 µL/min/mg. Moreover, in “physchem”, the log distribution coefficient (logD) was 2.5.
Molecule `COc1ccc(-c2cc(-c3ccc(S(C)(=O)=O)cc3)cnc2C(F)(F)F)cn1` returned a pH-dependent lipophilicity (logD) in “physchem” of 3.
In [3], `COc1ccc(-c2cc(-c3ccc(S(C)(=O)=O)cc3)cnc2N)cn1` came in with a half-life of 4.68 h. Further, in “in vitro”, the intrinsic metabolic clearance (microsomal CLint) was 6.2 µL/min/mg. The molecule also came in with a log distribution coefficient (logD) in “physchem” of 2.2.
Consider `COc1ccc(-c2cc(-c3ccc(S(C)(=O)=O)cc3)nnc2N)cn1`, for which, in data set [3], the half-life is more than 4.17 h. Further, the microsomal CLint in the data set “in vitro” is less than 7 µL/min/mg. This molecule also came in with a logD in “physchem” of 1.7.
